Measured values reported in the supplement of paper PMC10627819.

Tests used:
S. pneumoniae D39V [1] = test: fitness (endpoint OD595 vs no drug) (fraction); higher = more growth
In short: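 Volumes were 30 µl per well, or 55 µl for S. pneumoniae, in 384-well plates inoculated at OD595 0.01. Media were TSB, LB Lennox or CY at 37 °C, and OD595 was read every 30 min for 14 h with first-reading background subtraction. Fitness is the ratio of optical density at stationary-phase entry to the robust mean of no-drug controls. That ratio is capped at 1.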

B. subtilis 168 = test: Bliss interaction score (quartile over a dose matrix) (fitness difference); higher = more antagonism (negative = synergy)
In short: (§1)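 Fitness is OD595 at stationary-phase entry relative to the plate's robust no-drug mean, capped at 1. Single-drug fitness was inferred from combinations. The Bliss score is observed minus product-expected fitness, summarised by quartiles over technical, biological and donor/recipient replicates.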

S. aureus DSM 20231 = test: as above
In short: as §1

S. aureus Newman = test: as above
In short: as §1

S. pneumoniae D39V [2] = test: as above
In short: as §1
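Wherever Bliss interaction score (quartile over a dose matrix) is given: first quartile when negative (synergy) and third quartile when positive (antagonism).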

CC[C@H]1OC(=O)[C@H](C)[C@@H](O[C@H]2C[C@@](C)(OC)[C@@H](O)[C@H](C)O2)[C@H](C)[C@@H](O[C@@H]2O[C@H](C)C[C@H](N(C)C)[C@H]2O)[C@](C)(OC)C[C@@H](C)C(=O)[C@H](C)[C@@H](O)[C@]1(C)O [Clarithromycin] + CN[C@H](CC(C)C)C(=O)N[C@H]1C(=O)N[C@@H](CC(N)=O)C(=O)N[C@H]2C(=O)N[C@H]3C(=O)N[C@H](C(=O)N[C@H](C(=O)O)c4cc(O)cc(O)c4-c4cc3ccc4O)[C@H](O)c3ccc(c(Cl)c3)Oc3cc2cc(c3O[C@@H]2O[C@H](CO)[C@@H](O)[C@H](O)[C@H]2O[C@H]2C[C@](C)(N)[C@H](O)[C@H](C)O2)Oc2ccc(cc2Cl)[C@H]1O [Vancomycin]
fitness, S. pneumoniae D39V [1], one replicate
Conditions | first compound 0.007812 µg/mL | first compound 0.01562 µg/mL | first compound 0.03125 µg/mL
partner 0.125 µg/mL | 0.835 | 0.803 | 0.699
partner 0.25 µg/mL | 0.333 | 0.0993 | 0.126
partner 0.5 µg/mL | 0.0664 | 0.0774 | 0.0781

fitness, S. pneumoniae D39V [1]
Conditions | first compound 0.0625 µg/mL | first compound 0.07 µg/mL | first compound 0.125 µg/mL | first compound 0.14 µg/mL | first compound 0.25 µg/mL | first compound 0.28 µg/mL
partner 0.03125 µg/mL | 0.652 | – | 0.381 | – | 0.149 | –
partner 0.0625 µg/mL | 0.577 | – | 0.321 | – | 0.116 | –
partner 0.125 µg/mL | – | 0.101 | 0.281 | 0.0727 | 0.106 | 0.0814
partner 0.25 µg/mL | – | 0.0516 | – | 0.0525 | – | 0.0738
partner 0.5 µg/mL | – | 0.0749 | – | 0.0887 | – | 0.0893

Conditions | Bliss interaction score
B. subtilis 168 | 0.038
S. aureus DSM 20231 | 0.054
S. aureus Newman | 0.0579
S. pneumoniae D39V [2] | -0.0529

CC[C@H]1OC(=O)[C@H](C)[C@@H](O[C@H]2C[C@@](C)(OC)[C@@H](O)[C@H](C)O2)[C@H](C)[C@@H](O[C@@H]2O[C@H](C)C[C@H](N(C)C)[C@H]2O)[C@](C)(OC)C[C@@H](C)C(=O)[C@H](C)[C@@H](O)[C@]1(C)O [Clarithromycin] + CO[C@H]1/C=C/O[C@@]2(C)Oc3c(C)c(O)c4c(O)c(c(/C=N/N5CCN(C)CC5)c(O)c4c3C2=O)NC(=O)/C(C)=C\C=C\[C@H](C)[C@H](O)[C@@H](C)[C@@H](O)[C@@H](C)[C@H](OC(C)=O)[C@@H]1C [Rifampicin]
fitness, S. pneumoniae D39V [1], one replicate
Conditions | first compound 0.007812 µg/mL | first compound 0.01562 µg/mL | first compound 0.03125 µg/mL | first compound 0.0625 µg/mL | first compound 0.125 µg/mL | first compound 0.25 µg/mL
partner 0.025 µg/mL | – | – | – | 0.395 | 0.245 | 0.155
partner 0.05 µg/mL | 0.647 | 0.466 | 0.293 | – | – | –
partner 0.1 µg/mL | 0.262 | 0.213 | 0.219 | – | – | –
partner 0.2 µg/mL | 0.122 | 0.15 | 0.196 | 0 | 0 | 0

fitness, S. pneumoniae D39V [1]
Conditions | first compound 0.0625 µg/mL | first compound 0.07 µg/mL | first compound 0.125 µg/mL | first compound 0.14 µg/mL | first compound 0.25 µg/mL | first compound 0.28 µg/mL
partner 0.025 µg/mL | – | 0.161 | – | 0.109 | – | 0.121
partner 0.05 µg/mL | 0.362 | 0.17 | 0.215 | 0.164 | 0.108 | 0.102
partner 0.1 µg/mL | 0.177 | 0.118 | 0.119 | 0.0954 | 0.114 | 0.138

Conditions | Bliss interaction score
B. subtilis 168 | 0.0788
S. aureus DSM 20231 | 0.0272
S. aureus Newman | 0.0434
S. pneumoniae D39V [2] | 0.0654

CC[C@H]1OC(=O)[C@H](C)[C@@H](O[C@H]2C[C@@](C)(OC)[C@@H](O)[C@H](C)O2)[C@H](C)[C@@H](O[C@@H]2O[C@H](C)C[C@H](N(C)C)[C@H]2O)[C@](C)(OC)C[C@@H](C)C(=O)[C@H](C)[C@@H](O)[C@]1(C)O [Clarithromycin] + COc1c(N2C[C@@H]3CCCN[C@@H]3C2)c(F)cc2c(=O)c(C(=O)O)cn(C3CC3)c12 [Moxifloxacin]
fitness, S. pneumoniae D39V [1], one replicate
Conditions | first compound 0.007812 µg/mL | first compound 0.01562 µg/mL | first compound 0.03125 µg/mL
partner 0.0037 µg/mL | 0.834 | 0.823 | 0.648
partner 0.0075 µg/mL | 0.85 | 0.82 | 0.6
partner 0.015 µg/mL | 0.818 | 0.765 | 0.572

fitness, S. pneumoniae D39V [1]
Conditions | partner 0.005 µg/mL | partner 0.01 µg/mL | partner 0.02 µg/mL | partner 0.0312 µg/mL | partner 0.0625 µg/mL | partner 0.125 µg/mL
first compound 0.0625 µg/mL | 0.716 | 0.748 | 0.717 | – | – | –
first compound 0.07 µg/mL | – | – | – | 0.056 | 0.0339 | 0.0389
first compound 0.14 µg/mL | – | – | – | 0.0451 | 0.0439 | 0.0343
first compound 0.25 µg/mL | 0.217 | 0.235 | 0.238 | – | – | –
first compound 0.28 µg/mL | – | – | – | 0.0421 | 0.0312 | 0.0325

Conditions | Bliss interaction score
B. subtilis 168 | 0.0403
S. aureus DSM 20231 | 0.0891
S. aureus Newman | 0.123
S. pneumoniae D39V [2] | 0.0742

CC[C@H]1OC(=O)[C@H](C)[C@@H](O[C@H]2C[C@@](C)(OC)[C@@H](O)[C@H](C)O2)[C@H](C)[C@@H](O[C@@H]2O[C@H](C)C[C@H](N(C)C)[C@H]2O)[C@](C)(OC)C[C@@H](C)C(=O)[C@H](C)[C@@H](O)[C@]1(C)O [Clarithromycin] + COc1ccc(C[C@H](N)C(=O)N[C@H]2[C@@H](O)[C@H](n3cnc4c(N(C)C)ncnc43)O[C@@H]2CO)cc1 [Puromycin]
fitness, S. pneumoniae D39V [1], one replicate
Conditions | first compound 0.007812 µg/mL | first compound 0.01562 µg/mL | first compound 0.03125 µg/mL | first compound 0.0625 µg/mL | first compound 0.125 µg/mL | first compound 0.25 µg/mL
partner 1 µg/mL | 0.947 | 0.867 | 0.676 | 0.419 | 0.138 | 0.112
partner 2 µg/mL | 0.839 | 0.805 | 0.612 | 0.504 | 0.192 | 0.0762
partner 4 µg/mL | 0.667 | 0.617 | 0.467 | 0.255 | 0.15 | 0.134

fitness, S. pneumoniae D39V [1]
Conditions | first compound 0.07 µg/mL | first compound 0.14 µg/mL | first compound 0.28 µg/mL
partner 1 µg/mL | 0.131 | 0.0877 | 0.11
partner 2 µg/mL | 0.125 | 0.096 | 0.0799
partner 4 µg/mL | 0.12 | 0.122 | 0.0797

Conditions | Bliss interaction score
B. subtilis 168 | 0.0559
S. aureus DSM 20231 | 0.0616
S. aureus Newman | -0.0662
S. pneumoniae D39V [2] | -0.0827

CC[C@H]1OC(=O)[C@H](C)[C@@H](O[C@H]2C[C@@](C)(OC)[C@@H](O)[C@H](C)O2)[C@H](C)[C@@H](O[C@@H]2O[C@H](C)C[C@H](N(C)C)[C@H]2O)[C@](C)(OC)C[C@@H](C)C(=O)[C@H](C)[C@@H](O)[C@]1(C)O [Clarithromycin] + COc1cccc2c1C(=O)c1c(O)c3c(c(O)c1C2=O)C[C@@](O)(C(=O)CO)C[C@@H]3O[C@H]1C[C@H](N)[C@H](O)[C@H](C)O1 [Doxorubicin]
fitness, S. pneumoniae D39V [1], one replicate
Conditions | first compound 0.007812 µg/mL | first compound 0.01562 µg/mL | first compound 0.03125 µg/mL
partner 0.25 µg/mL | 0.866 | 0.825 | 0.633
partner 0.5 µg/mL | 0.841 | 0.798 | 0.621
partner 1 µg/mL | 0.794 | 0.777 | 0.608

fitness, S. pneumoniae D39V [1]
Conditions | first compound 0.0625 µg/mL | first compound 0.07 µg/mL | first compound 0.125 µg/mL | first compound 0.14 µg/mL | first compound 0.25 µg/mL | first compound 0.28 µg/mL
partner 0.25 µg/mL | 0.457 | 0.112 | 0.277 | 0.0456 | 0.077 | 0.0403
partner 0.5 µg/mL | 0.495 | 0.106 | 0.295 | 0.0366 | 0.107 | 0.0281
partner 1 µg/mL | 0.411 | 0.103 | 0.188 | 0.0523 | 0.0684 | 0.0955

Conditions | Bliss interaction score
B. subtilis 168 | 0.0718
S. aureus DSM 20231 | 0.0858
S. aureus Newman | 0.105
S. pneumoniae D39V [2] | -0.0578

CC[C@H]1OC(=O)[C@H](C)[C@@H](O[C@H]2C[C@@](C)(OC)[C@@H](O)[C@H](C)O2)[C@H](C)[C@@H](O[C@@H]2O[C@H](C)C[C@H](N(C)C)[C@H]2O)[C@](C)(OC)C[C@@H](C)C(=O)[C@H](C)[C@@H](O)[C@]1(C)O [Clarithromycin] + C[C@@H]1O[C@@H]1P(=O)(O)O [Fosfomycin]
fitness, S. pneumoniae D39V [1], one replicate
Conditions | first compound 0.007812 µg/mL | first compound 0.01562 µg/mL | first compound 0.03125 µg/mL
partner 1.25 µg/mL | 0.863 | 0.828 | 0.641
partner 2.5 µg/mL | 0.775 | 0.804 | 0.634
partner 5 µg/mL | 0.669 | 0.63 | 0.559

fitness, S. pneumoniae D39V [1]
Conditions | first compound 0.0625 µg/mL | first compound 0.07 µg/mL | first compound 0.125 µg/mL | first compound 0.14 µg/mL | first compound 0.25 µg/mL | first compound 0.28 µg/mL
partner 1.25 µg/mL | 0.543 | 0.171 | 0.332 | 0.088 | 0.139 | 0.102
partner 2.5 µg/mL | 0.538 | 0.102 | 0.323 | 0.0599 | 0.13 | 0.0306
partner 5 µg/mL | 0.485 | 0.0461 | 0.288 | 0.057 | 0.132 | 0.0557

Conditions | Bliss interaction score
B. subtilis 168 | 0.0504
S. aureus DSM 20231 | -0.0843
S. aureus Newman | -0.114
S. pneumoniae D39V [2] | 0.0544

CC[C@H]1OC(=O)[C@H](C)[C@@H](O[C@H]2C[C@@](C)(OC)[C@@H](O)[C@H](C)O2)[C@H](C)[C@@H](O[C@@H]2O[C@H](C)C[C@H](N(C)C)[C@H]2O)[C@](C)(OC)C[C@@H](C)C(=O)[C@H](C)[C@@H](O)[C@]1(C)O [Clarithromycin] + C[C@@H](O)[C@H]1C(=O)N2C(C(=O)O)=C(SCCNC=N)C[C@H]12 [Imipenem]
fitness, S. pneumoniae D39V [1], one replicate
Conditions | first compound 0.007812 µg/mL | first compound 0.01562 µg/mL | first compound 0.03125 µg/mL
partner 0.005 µg/mL | 0.831 | 0.812 | 0.589
partner 0.01 µg/mL | 0.855 | 0.837 | 0.612
partner 0.02 µg/mL | 0.858 | 0.844 | 0.629

fitness, S. pneumoniae D39V [1]
Conditions | first compound 0.0625 µg/mL | first compound 0.07 µg/mL | first compound 0.125 µg/mL | first compound 0.14 µg/mL | first compound 0.25 µg/mL | first compound 0.28 µg/mL
partner 0.005 µg/mL | – | 0.13 | – | 0.0799 | – | 0.0611
partner 0.0065 µg/mL | 0.541 | – | 0.154 | – | 0.0361 | –
partner 0.01 µg/mL | – | 0.146 | – | 0.0799 | – | 0.0532
partner 0.013 µg/mL | 0.661 | – | 0.277 | – | 0.0557 | –
partner 0.02 µg/mL | – | 0.17 | – | 0.109 | – | 0.0635
partner 0.026 µg/mL | 0.621 | – | 0.201 | – | 0.0493 | –

Conditions | Bliss interaction score
B. subtilis 168 | 0.0428
S. aureus DSM 20231 | 0.0295
S. aureus Newman | 0.0267
S. pneumoniae D39V [2] | -0.085
